In ChEMBL document CHEMBL2157957, “Strategies to mitigate the bioactivation of 2-anilino-7-aryl-pyrrolo[2,1-f][1,2,4]triazines: identification of orally bioavailable, efficacious ALK inhibitors” (J Med Chem, 2012):

Assays:
[1] = Plasma concentration in human SUP-M2 cells xenografted SCID mouse at 30 mg/kg, po administered as single dose measured 12 hrs post dose; format: ADME, organism-based; design: dose 30 mg/kg, route oral
[2] = Cmax in Sprague-Dawley rat at 5 mg/kg, po; format: ADME, organism-based; design: dose 5 mg/kg, route oral; conditions: in vivo
[3] = Half life in CD1 mouse liver microsomes at 0.5 uM preincubated for 10 mins before NADPH and UDPGA challenge; format: ADME, Microsome
[4] = Ratio of tumor concentration at 12 hrs to plasma concentration at 12 hrs in human SUP-M2 cells xenografted SCID mouse at 30 mg/kg, po administered as single dose; format: ADME, organism-based; design: dose 30 mg/kg, route oral
Mus musculus [5] = assay: Toxicity in human SUP-M2 cells xenografted SCID mouse assessed as incidence of overt toxicity at 55 mg/kg, po BID measured 12 days post dose; format: organism-based; design: dose 55 mg/kg, route oral; conditions: in vivo, 288 h
[6] = Half life in human liver microsomes at 0.5 uM preincubated for 10 mins before NADPH and UDPGA challenge; format: ADME, Microsome
Mus musculus [7] = assay: Toxicity in human SUP-M2 cells xenografted SCID mouse assessed as body weight loss at 55 mg/kg, po BID measured 12 days post dose; format: organism-based; design: dose 55 mg/kg, route oral; conditions: in vivo, 288 h
[8] = AUC (0 to t) in SCID mouse at 10 mg/kg, po; format: ADME, organism-based; design: dose 10 mg/kg, route oral; conditions: plasma
[9] = AUC (0 to t) in Sprague-Dawley rat at 1 mg/kg, iv; format: ADME, organism-based; design: dose 1 mg/kg, route intravenous; conditions: plasma
[10] = Tmax in SCID mouse at 10 mg/kg, po; format: ADME, organism-based; design: dose 10 mg/kg, route oral; conditions: in vivo
[11] = Oral bioavailability in Sprague-Dawley rat at 5 mg/kg; format: ADME, organism-based; conditions: in vivo
Insulin receptor = Insulin receptor (Homo sapiens, UniProt P06213); assay: Inhibition of IR
[12] = Cmax in SCID mouse at 10 mg/kg, po; format: ADME, organism-based; design: dose 10 mg/kg, route oral; conditions: in vivo
Mus musculus [13] = assay: Toxicity in human SUP-M2 cells xenografted SCID mouse assessed as incidence of overt toxicity at 30 mg/kg, po BID measured 12 days post dose; format: organism-based; design: dose 30 mg/kg, route oral; conditions: in vivo, 288 h
[14] = Oral bioavailability in SCID mouse at 10 mg/kg; format: ADME, organism-based; conditions: in vivo
[15] = target: ALK tyrosine kinase receptor (Homo sapiens, UniProt Q9UM73); assay: Inhibition of GST-tagged human ALK cytoplasmic domain (1058-1620) expressed in Sf21 insect cells using GST-tagged human recombinant PLC-gamma/substrate by ELISA
Mus musculus [16] = assay: Toxicity in human SUP-M2 cells xenografted SCID mouse assessed as body weight loss at 30 mg/kg, po BID measured 12 days post dose; format: organism-based; design: dose 30 mg/kg, route oral; conditions: in vivo, 288 h
[17] = Clearance in Sprague-Dawley rat at 1 mg/kg, iv; format: ADME, organism-based; design: dose 1 mg/kg, route intravenous; conditions: in vivo
[18] = Half life in SCID mouse at 1 mg/kg, iv; format: ADME, organism-based; design: dose 1 mg/kg, route intravenous; conditions: in vivo
[19] = Half life in Sprague-Dawley rat at 1 mg/kg, iv; format: ADME, organism-based; design: dose 1 mg/kg, route intravenous; conditions: in vivo
[20] = Half life in SCID mouse at 10 mg/kg, po; format: ADME, organism-based; design: dose 10 mg/kg, route oral; conditions: in vivo
[21] = Tmax in Sprague-Dawley rat at 5 mg/kg, po; format: ADME, organism-based; design: dose 5 mg/kg, route oral; conditions: in vivo
[22] = Half life in monkey liver microsomes at 0.5 uM preincubated for 10 mins before NADPH and UDPGA challenge; format: ADME, Macaca mulatta, Microsome; conditions: rhesus monkey
Plasma = assay: Ratio of plasma concentration at 12 hrs to plasma concentration at 24 hrs in human SUP-M2 cells xenografted SCID mouse at 30 mg/kg, po administered as single dose; format: ADME, organism-based; design: dose 30 mg/kg, route oral; conditions: in vivo
[23] = AUC (0 to t) in Sprague-Dawley rat at 5 mg/kg, po; format: ADME, organism-based; design: dose 5 mg/kg, route oral; conditions: plasma
Mus musculus [24] = assay: Inhibition of NPM-ALK phosphorylation in human SUP-M2 cells xenografted in SCID mouse at 30 mg/kg, po administered as single dose measured 12 hrs post dose; format: functional; conditions: SUP-M2, 12 h
[25] = Clearance in SCID mouse at 1 mg/kg, iv; format: ADME, organism-based; design: dose 1 mg/kg, route intravenous; conditions: in vivo
[26] = target: NPM/ALK (Nucleophosmin/ALK tyrosine kinase receptor) (Homo sapiens, UniProt Q9UM73); assay: Inhibition of human NPM-ALK phosphorylation using 4-MeUP substrate by cell based assay
[27] = AUC (0 to t) in SCID mouse at 1 mg/kg, iv; format: ADME, organism-based; design: dose 1 mg/kg, route intravenous; conditions: plasma
[28] = Half life in Sprague-Dawley rat liver microsomes at 0.5 uM preincubated for 10 mins before NADPH and UDPGA challenge; format: ADME, Microsome
[29] = Volume of distribution in SCID mouse at 1 mg/kg, iv; format: ADME, organism-based; design: dose 1 mg/kg, route intravenous; conditions: in vivo
[30] = Volume of distribution in Sprague-Dawley rat at 1 mg/kg, iv; format: ADME, organism-based; design: dose 1 mg/kg, route intravenous; conditions: in vivo

Insulin receptor, sequence (P06213 28-758 limits assumed): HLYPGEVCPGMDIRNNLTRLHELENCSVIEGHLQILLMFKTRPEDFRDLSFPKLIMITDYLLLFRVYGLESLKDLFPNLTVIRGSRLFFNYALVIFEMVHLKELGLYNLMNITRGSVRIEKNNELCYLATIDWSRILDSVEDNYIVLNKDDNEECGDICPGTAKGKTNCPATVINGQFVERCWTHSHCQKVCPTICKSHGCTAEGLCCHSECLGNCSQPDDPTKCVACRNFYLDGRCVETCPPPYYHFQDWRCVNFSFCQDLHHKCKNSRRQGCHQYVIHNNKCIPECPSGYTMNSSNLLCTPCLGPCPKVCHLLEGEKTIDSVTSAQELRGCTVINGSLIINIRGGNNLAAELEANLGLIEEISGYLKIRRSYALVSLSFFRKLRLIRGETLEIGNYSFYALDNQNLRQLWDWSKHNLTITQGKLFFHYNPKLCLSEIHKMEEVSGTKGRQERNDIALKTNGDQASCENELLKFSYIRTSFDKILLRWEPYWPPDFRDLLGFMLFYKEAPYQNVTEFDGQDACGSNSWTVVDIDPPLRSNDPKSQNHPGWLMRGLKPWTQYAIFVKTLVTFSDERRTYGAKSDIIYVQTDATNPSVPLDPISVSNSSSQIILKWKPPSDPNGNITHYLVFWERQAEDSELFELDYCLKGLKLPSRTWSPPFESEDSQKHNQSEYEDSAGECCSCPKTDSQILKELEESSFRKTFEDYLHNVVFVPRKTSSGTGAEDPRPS
Insulin receptor, sequence (P06213 763-1382 limits assumed): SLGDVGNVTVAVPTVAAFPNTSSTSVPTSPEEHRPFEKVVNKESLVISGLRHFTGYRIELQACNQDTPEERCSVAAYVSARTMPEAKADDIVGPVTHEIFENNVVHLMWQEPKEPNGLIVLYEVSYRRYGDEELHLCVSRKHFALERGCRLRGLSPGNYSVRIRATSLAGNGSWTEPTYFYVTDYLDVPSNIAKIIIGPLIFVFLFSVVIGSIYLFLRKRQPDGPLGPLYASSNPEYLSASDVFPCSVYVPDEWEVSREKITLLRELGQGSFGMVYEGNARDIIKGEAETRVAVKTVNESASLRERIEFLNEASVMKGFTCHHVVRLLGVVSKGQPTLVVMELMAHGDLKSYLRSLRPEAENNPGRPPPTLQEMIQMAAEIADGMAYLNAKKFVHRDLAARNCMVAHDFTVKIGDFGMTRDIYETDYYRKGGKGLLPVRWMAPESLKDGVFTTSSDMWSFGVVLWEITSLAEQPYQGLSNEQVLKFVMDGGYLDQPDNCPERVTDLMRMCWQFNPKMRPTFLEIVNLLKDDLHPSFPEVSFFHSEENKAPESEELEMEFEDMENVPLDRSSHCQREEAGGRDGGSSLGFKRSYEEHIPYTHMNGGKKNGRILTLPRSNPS
ALK tyrosine kinase receptor, sequence (Q9UM73 whole entry, the tested form may be a part): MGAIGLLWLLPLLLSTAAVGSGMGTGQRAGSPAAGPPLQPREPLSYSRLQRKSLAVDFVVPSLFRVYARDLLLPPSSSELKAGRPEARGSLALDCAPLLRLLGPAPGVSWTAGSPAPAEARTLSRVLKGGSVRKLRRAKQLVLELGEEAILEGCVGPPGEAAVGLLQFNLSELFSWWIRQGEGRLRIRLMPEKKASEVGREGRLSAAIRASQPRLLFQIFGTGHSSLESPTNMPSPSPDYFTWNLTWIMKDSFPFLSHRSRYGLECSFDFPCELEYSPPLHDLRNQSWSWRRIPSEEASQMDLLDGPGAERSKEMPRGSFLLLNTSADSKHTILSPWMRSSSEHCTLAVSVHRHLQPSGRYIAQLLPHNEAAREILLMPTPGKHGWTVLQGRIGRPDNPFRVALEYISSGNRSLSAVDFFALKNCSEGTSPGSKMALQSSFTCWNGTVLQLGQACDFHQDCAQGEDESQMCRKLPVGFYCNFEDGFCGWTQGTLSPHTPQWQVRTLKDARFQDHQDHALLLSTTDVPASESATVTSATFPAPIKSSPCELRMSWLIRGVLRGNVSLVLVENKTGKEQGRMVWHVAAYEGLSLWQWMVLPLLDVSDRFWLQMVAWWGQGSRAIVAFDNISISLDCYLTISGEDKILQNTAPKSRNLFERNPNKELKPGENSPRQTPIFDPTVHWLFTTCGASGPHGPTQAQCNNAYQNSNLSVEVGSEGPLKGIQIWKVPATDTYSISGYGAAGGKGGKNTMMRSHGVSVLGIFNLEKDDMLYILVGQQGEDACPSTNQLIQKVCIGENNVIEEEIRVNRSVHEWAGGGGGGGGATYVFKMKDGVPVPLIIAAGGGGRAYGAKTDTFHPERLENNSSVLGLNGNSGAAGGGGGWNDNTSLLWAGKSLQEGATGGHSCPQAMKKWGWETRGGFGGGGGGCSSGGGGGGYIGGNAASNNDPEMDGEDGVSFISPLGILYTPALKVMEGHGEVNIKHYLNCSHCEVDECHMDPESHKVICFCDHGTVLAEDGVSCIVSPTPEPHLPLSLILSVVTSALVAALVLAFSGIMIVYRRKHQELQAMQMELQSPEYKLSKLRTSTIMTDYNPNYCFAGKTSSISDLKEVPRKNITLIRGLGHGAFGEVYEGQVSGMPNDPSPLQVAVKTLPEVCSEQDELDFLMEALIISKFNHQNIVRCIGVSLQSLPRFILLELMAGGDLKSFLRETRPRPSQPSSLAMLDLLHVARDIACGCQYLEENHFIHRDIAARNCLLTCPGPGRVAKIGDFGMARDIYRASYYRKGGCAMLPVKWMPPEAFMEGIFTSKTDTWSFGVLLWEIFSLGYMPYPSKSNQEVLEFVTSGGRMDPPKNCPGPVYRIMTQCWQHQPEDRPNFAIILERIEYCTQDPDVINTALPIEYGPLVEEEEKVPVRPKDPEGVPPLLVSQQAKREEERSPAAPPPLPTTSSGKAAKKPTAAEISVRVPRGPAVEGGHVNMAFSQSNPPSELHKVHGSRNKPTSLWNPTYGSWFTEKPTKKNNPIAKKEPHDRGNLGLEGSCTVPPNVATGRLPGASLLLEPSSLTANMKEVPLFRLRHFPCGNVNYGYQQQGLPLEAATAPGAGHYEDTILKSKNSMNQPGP
NPM/ALK (Nucleophosmin/ALK tyrosine kinase receptor), sequence (Q9UM73 whole entry): as the sequence (Q9UM73 whole entry, the tested form may be a part) above
NPM/ALK (Nucleophosmin/ALK tyrosine kinase receptor), sequence (P06748 whole entry, further chain): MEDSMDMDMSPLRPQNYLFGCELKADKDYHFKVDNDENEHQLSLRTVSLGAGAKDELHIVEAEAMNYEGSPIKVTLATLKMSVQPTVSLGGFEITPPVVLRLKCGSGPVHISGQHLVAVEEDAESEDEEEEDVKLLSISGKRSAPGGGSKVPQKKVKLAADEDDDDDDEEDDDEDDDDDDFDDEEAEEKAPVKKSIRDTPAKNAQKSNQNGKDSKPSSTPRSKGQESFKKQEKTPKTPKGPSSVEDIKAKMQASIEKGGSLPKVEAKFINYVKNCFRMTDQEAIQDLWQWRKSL

Question: What does the source list for `COc1cc(C2CCN(CC(N)=O)CC2)ccc1Nc1ncc2ccc(-c3ccccc3OC)n2n1`?
Answer: concentration at 12 h [1]: 6 µM; Cmax [2]: 392 ng/mL; half-life at 0.5 µM [3]: > 40 min; Kp at 12 h [4]: 2; Activity (Mus musculus [5]): Non-toxic; half-life at 0.5 µM [6]: > 40 min; Activity (Mus musculus [7]): Non-toxic; AUC(0-t) [8]: 42500 ng·h/mL; AUC(0-t) [9]: 1110 ng·h/mL; Tmax [10]: 2 h; bioavailability [11]: 43%; IC50 (Insulin receptor): 222 nM; Cmax [12]: 3470 ng/mL; Activity (Mus musculus [13]): Non-toxic; bioavailability [14]: 56%; IC50 [15]: 6 nM; Activity (Mus musculus [16]): Non-toxic; clearance [17]: 12 mL/min/kg; half-life [18]: 360 min; half-life [19]: 204 min; half-life [20]: 264 min; Tmax [21]: 6 h; half-life at 0.5 µM [22]: > 40 min; Ratio (Plasma): 7; AUC(0-t) [23]: 1760 ng·h/mL; inhibition in vivo at 30 mg/kg (Mus musculus [24]): 80%; clearance [25]: 2 mL/min/kg; IC50 [26]: 100 nM; AUC(0-t) [27]: 7550 ng·h/mL; half-life at 0.5 µM [28]: > 40 min; Vd [29]: 1.1 L/kg; Vd [30]: 3.5 L/kg
